Measurements taken from patent US20100056524A1, “Compound” (priority 2008, published 2010).
Like-named read-outs stand apart in the source and are kept apart here.

Key:
[1] = target: T1, MARK3 (Homo sapiens, UniProt P27448); experiment: MARK3 protein kinase assay; type: biochemical; conditions: for remaining activity at 10 µM: 10 μM compound
T1 construct: All protein kinases were of human origin and encoded full length proteins, unless indicated otherwise; His6; made in house; host or cells: Sf21 insect cells
Description: (§1) All protein kinases were of human origin and encoded full length proteins, unless indicated otherwise. They were either expressed as glutathione S-transferase (GST) fusion proteins in Escherichia Coli or as hexahistidine (His6)-tagged proteins in insect Sf21 cells. GST fusion proteins were purified by affinity chromatography on glutathione-Sepharose, and His6-tagged proteins on nickel/nitriloacetate-agarose. The procedures for expressing some of the protein kinases used herein have been detailed previously.^8,9 The following sections outline the DNA vectors synthesised and the procedures used to express and purifying protein kinases that have not been reported previously.
The following kinases were expressed in Sf21 cells: Aurora B and Aurora C, extra-cellular signal-regulated kinase 8 (ERK8), microtubule affinity regulating kinase 3 (MARK3), protein kinase Bα[118-480][S473D], protein kinase Bβ (PKBβ[120-481][S474D], 3-phosphoinositide-dependent protein kinase-1 [52-556]
(§2) All assays (25.5 μl) were carried out at room temperature (21° C.) and were linear with respect to time and enzyme concentration under the conditions used. Assays were performed for 30 min using Multidrop Micro reagent dispensers (Thermo Electron Corporation, Waltham, Mass. 02454, USA) in a 96-well format. The concentration of magnesium acetate in the assays was 10 mM and the [γ-33P] ATP (800 cpm/pmol) was used at 5, 20 or 50 μM as indicated, in order to be at or below the Km for ATP for each enzyme. Protein kinases assayed at 5 μM ATP were: —ERK1, ERK8, PKBα, MARK3, Aurora C. Protein kinases assayed at 20 μM ATP were: —JNK1, PDK1, CHK1, CHK2, CDK2 and Aurora B. Protein kinases assayed at 50 μM ATP were: —MNK2, IKKepsilon and TBK1.
(§3) The assays were initiated with MgATP, stopped by addition of 5 μl of 0.5 M orthophosphoric acid and spotted on to P81 filterplates using a unifilter harvester (PerkinElmer, Boston, Mass. 02118, USA). The IC50 values of inhibitors were determined after carrying out assays at 10 different concentrations of each compound.
(§4) ERK1 and ERK8 were both assayed against myelin basic protein (MBP, 0.33 mg/ml). MARK3 was assayed against the peptide […] (300 μM), MNK2 against the eIF4E protein (0.5 mg/ml). PKBβ was assayed against the peptide […] (30 μM). TBK1 were assayed against ([…]) (300 μM). The substrates used for other protein kinases were described previously.^8,9
(§5) Unless stated otherwise, enzymes were diluted in 50 mM Tris/HCl pH 7.5, 0.1 mM EGTA, 1 mg/ml BSA, 0.1% (v/v) 2-mercaptoethanol and assayed in 50 mM Tris/HCl pH 7.5, 0.1 mM EGTA, 0.1% (v/v) 2-mercaptoethanol.

[2] = target: T2, PAK5 (Homo sapiens, UniProt Q9P286); experiment: PAK5 protein kinase assay; type: biochemical; conditions: for remaining activity at 10 µM: 10 μM compound
T2 construct: All protein kinases were of human origin and encoded full length proteins, unless indicated otherwise; made in house
Description: as §1, §2, §3, §5

[3] = target: T3, PIM3 (Homo sapiens, UniProt Q86V86); experiment: PIM3 protein kinase assay; type: biochemical; conditions: for remaining activity at 10 µM: 10 μM compound
T3 construct: All protein kinases were of human origin and encoded full length proteins, unless indicated otherwise; made in house
Description: as §1, §2, §3, §5

[4] = tested on: IGF-1R; experiment: IGF-1R protein kinase assay; type: biochemical, human; conditions: for residual kinase activity: IGF-1R
Description: as §1, §2, §3, §5

[5] = tested on: AMPK; experiment: AMPK protein kinase assay; type: biochemical, human; conditions: for residual kinase activity: AMPK
Description: as §1, §2, §3, §5

[6] = target: T4, S6K1 (Homo sapiens, UniProt P23443, T412E); experiment: S6K1 protein kinase assay; type: biochemical; conditions: for remaining activity at 10 µM: 10 μM compound
T4 construct: All protein kinases were of human origin and encoded full length proteins, unless indicated otherwise; made in house
Description: as §1, §2, §3, §5

[7] = target: T5, MNK2 (Homo sapiens, UniProt Q9HBH9); experiment: MNK2 protein kinase assay; type: biochemical; conditions: for remaining activity at 10 µM: 10 μM compound
T5 construct: All protein kinases were of human origin and encoded full length proteins, unless indicated otherwise; GST; made in house; host or cells: E. coli
Description: as §1
The following proteins were expressed in E. coli: —CHK2[5-543], cyclin-dependent protein kinase 2 (CDK2), MAP kinase-interacting kinase 2 (MNK2), extra-cellular signal-regulated kinase 1 (ERK1).
In order to produce activated forms of Aurora B and Aurora C, insect Sf21 cells were incubated for 1 h with the protein phosphatase inhibitor okadaic acid (50 nM). JNK isoforms were activated with MKK4 and MKK7, MNK2 with p38α MAPkinase; PKBα, PKBβ, with PDK1, and ERK1 with MKK1. To activate CDK2, bacterial pellets expressing cyclin A2 and CDK2 were mixed together, lyse and purified on glutathione Sepharose. The GST-tags were removed by cleavage with PreScission protease and the CDK2-cyclin A2 complex purified by chromatography on SP-Sepharose. It was then activated with CAK1/CDK7 followed by chromatography on nickel-nitrilotriacetate agarose to remove CAK1/CDK7, which binds to this column by virtue of its C-terminal His6 tag. All the other protein kinases were active as expressed.
as §2, §3, §4, §5

[8] = target: T6, CSK (Homo sapiens, UniProt P41240); experiment: CSK protein kinase assay; type: biochemical; conditions: for remaining activity at 10 µM: 10 μM compound
T6 construct: All protein kinases were of human origin and encoded full length proteins, unless indicated otherwise; made in house
Description: as §1, §2, §3, §5

[9] = target: T7, PAK4 (Homo sapiens, UniProt O96013); experiment: PAK4 protein kinase assay; type: biochemical; conditions: for remaining activity at 10 µM: 10 μM compound
T7 construct: All protein kinases were of human origin and encoded full length proteins, unless indicated otherwise; made in house
Description: as §1, §2, §3, §5

[10] = target: T8, MSK1 (Homo sapiens, UniProt O75582); experiment: MSK1 protein kinase assay; type: biochemical; conditions: for remaining activity at 10 µM: 10 μM compound
T8 construct: All protein kinases were of human origin and encoded full length proteins, unless indicated otherwise; made in house
Description: as §1, §2, §3, §5

[11] = target: T9, BTK (Homo sapiens, UniProt Q06187); experiment: BTK protein kinase assay; type: biochemical; conditions: for remaining activity at 10 µM: 10 μM compound
T9 construct: All protein kinases were of human origin and encoded full length proteins, unless indicated otherwise; made in house
Description: as §1, §2, §3, §5

[12] = target: T10, EF2K (Homo sapiens, UniProt O00418); experiment: EF2K protein kinase assay; type: biochemical; conditions: for remaining activity at 10 µM: 10 μM compound
T10 construct: All protein kinases were of human origin and encoded full length proteins, unless indicated otherwise; made in house
Description: as §1, §2, §3, §5

T1 sequence (P27448 whole entry): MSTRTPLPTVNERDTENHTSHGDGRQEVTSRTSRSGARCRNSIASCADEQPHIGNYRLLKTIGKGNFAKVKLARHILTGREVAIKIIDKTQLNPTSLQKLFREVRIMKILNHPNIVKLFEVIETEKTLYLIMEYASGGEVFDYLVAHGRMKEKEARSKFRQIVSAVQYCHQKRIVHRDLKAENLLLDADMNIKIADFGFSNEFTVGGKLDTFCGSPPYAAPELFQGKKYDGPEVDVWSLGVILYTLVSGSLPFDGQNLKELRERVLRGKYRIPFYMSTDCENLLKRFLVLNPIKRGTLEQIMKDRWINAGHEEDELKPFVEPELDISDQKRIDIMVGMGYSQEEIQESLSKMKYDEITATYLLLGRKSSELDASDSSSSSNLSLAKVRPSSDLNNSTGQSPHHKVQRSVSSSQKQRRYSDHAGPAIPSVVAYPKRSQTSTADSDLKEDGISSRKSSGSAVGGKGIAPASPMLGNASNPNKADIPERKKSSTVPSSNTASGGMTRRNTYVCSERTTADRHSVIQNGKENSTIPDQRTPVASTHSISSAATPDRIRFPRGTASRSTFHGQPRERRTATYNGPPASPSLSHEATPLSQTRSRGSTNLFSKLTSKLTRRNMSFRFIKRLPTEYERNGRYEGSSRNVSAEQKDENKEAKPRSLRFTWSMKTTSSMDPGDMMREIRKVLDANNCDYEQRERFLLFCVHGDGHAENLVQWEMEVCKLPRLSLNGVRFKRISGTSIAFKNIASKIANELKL
T2 sequence (Q9P286 425-719 limits assumed): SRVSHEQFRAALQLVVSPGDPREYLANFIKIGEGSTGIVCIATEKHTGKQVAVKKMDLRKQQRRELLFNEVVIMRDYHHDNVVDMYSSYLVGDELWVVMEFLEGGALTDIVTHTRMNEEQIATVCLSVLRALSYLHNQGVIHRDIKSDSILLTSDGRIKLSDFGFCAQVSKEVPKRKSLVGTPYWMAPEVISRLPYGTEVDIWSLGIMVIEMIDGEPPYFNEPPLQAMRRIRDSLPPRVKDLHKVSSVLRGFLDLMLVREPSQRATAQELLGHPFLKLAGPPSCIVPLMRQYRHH
T9 sequence (Q06187 whole entry): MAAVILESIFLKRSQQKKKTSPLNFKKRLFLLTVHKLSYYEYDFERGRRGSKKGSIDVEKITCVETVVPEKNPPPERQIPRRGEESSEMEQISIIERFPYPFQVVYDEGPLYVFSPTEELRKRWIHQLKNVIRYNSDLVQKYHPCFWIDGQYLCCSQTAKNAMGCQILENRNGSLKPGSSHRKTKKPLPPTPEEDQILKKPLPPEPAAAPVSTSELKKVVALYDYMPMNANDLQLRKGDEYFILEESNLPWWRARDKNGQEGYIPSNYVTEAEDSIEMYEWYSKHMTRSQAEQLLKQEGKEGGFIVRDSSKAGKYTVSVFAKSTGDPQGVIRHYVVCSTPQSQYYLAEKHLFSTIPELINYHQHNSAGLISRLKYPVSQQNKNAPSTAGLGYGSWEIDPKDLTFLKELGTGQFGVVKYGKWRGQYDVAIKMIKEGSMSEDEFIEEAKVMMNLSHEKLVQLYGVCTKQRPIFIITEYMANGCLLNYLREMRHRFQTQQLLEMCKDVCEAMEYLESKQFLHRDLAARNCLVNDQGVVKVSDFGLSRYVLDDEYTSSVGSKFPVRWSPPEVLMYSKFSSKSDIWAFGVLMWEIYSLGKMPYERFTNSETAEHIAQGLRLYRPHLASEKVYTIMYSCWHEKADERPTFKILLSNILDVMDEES
T6 sequence (P41240 whole entry): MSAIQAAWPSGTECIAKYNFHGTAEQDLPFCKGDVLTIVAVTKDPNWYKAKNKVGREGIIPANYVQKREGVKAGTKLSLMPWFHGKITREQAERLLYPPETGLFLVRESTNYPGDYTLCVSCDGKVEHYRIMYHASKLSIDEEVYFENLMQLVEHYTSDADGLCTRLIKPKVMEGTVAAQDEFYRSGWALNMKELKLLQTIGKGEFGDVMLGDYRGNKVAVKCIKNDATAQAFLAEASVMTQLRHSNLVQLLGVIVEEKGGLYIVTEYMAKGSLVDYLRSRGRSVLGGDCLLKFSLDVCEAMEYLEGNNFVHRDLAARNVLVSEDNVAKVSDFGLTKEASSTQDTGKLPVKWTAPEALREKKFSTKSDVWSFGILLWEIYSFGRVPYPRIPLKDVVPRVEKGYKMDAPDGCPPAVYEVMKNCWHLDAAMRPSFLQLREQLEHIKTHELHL
T7 sequence (O96013 whole entry): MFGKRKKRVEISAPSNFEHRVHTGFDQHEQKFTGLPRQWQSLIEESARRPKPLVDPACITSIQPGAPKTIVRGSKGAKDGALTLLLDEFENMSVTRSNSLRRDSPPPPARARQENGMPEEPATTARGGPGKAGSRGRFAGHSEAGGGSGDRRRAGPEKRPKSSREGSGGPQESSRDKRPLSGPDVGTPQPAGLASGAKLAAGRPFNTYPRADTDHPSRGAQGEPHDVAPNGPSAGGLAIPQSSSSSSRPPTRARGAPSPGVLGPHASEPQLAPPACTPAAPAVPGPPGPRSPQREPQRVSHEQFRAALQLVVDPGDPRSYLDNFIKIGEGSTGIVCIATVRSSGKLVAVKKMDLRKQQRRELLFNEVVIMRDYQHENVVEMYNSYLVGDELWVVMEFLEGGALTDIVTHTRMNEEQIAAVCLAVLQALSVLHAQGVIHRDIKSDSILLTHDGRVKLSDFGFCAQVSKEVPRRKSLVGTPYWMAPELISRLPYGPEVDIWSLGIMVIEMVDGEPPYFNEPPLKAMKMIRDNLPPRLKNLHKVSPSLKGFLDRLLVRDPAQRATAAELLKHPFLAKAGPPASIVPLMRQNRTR
T5 sequence (Q9HBH9 whole entry): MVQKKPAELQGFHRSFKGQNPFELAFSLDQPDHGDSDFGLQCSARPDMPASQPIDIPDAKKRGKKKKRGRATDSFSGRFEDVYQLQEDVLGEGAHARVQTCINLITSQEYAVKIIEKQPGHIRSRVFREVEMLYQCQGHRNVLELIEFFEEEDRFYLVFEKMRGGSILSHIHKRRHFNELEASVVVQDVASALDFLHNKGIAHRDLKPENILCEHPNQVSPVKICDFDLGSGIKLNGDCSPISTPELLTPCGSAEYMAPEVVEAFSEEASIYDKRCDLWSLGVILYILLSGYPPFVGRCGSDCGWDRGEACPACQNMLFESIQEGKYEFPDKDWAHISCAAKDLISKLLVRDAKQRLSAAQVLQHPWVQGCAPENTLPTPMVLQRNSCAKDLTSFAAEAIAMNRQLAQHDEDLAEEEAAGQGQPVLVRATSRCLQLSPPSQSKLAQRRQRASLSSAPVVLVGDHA
T8 sequence (O75582 whole entry): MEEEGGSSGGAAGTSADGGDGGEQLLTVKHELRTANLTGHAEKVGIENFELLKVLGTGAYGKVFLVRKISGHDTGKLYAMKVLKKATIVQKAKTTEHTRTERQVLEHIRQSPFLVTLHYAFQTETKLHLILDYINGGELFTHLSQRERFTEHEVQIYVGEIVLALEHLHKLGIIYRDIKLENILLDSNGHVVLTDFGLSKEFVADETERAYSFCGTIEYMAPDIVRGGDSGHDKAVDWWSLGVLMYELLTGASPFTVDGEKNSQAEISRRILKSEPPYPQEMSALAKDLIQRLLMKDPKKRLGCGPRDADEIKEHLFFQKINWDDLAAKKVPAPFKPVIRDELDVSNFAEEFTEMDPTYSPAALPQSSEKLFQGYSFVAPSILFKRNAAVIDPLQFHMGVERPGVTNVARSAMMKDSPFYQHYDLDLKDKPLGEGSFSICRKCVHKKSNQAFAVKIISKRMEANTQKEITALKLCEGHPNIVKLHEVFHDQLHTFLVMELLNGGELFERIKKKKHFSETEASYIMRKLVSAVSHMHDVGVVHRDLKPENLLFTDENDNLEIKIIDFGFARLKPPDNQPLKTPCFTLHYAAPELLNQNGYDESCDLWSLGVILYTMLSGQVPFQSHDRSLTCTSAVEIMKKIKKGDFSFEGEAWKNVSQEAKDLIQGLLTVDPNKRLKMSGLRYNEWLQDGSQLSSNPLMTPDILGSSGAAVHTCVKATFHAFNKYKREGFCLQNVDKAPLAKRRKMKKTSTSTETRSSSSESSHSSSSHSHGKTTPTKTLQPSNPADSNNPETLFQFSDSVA
T4 sequence (P23443 1-421 T412E limits assumed): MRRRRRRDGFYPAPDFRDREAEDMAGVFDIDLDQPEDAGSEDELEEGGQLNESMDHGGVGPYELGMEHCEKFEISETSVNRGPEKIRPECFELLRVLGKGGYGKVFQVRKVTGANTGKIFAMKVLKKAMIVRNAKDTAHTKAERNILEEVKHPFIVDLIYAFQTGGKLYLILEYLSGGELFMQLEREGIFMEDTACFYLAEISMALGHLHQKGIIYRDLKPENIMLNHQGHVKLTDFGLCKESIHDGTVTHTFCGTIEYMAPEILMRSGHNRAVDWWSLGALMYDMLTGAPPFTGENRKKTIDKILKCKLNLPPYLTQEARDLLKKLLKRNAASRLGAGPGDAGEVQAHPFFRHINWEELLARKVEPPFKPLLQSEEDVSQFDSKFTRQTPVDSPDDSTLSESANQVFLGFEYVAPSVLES

Question: Which remaining activity at 10 µM ([1]; read-out: residual kinase activity MARK3) does the source give for O=C(NCCCNc1nc(Nc2cccc(F)c2)ncc1C1CC1)C1CCC1 [Example 23, Cyclobutanecarboxylic acid {3-[5-cyclopropyl-2-(3-fluoro-phenylamino)-pyrimidin-4-ylamino]-propyl}-amide] here?
Answer: 1%

Question: And the “residual kinase activity MARK3” value ([1]; 1 μm compound)?
Answer: 0%

Question: And the remaining activity at 1 µM ([1]; MARK3, 1 μM compound, 5 μM ATP, read-out: residual kinase activity)?
Answer: 0%

Question: What about the remaining activity at 10 µM ([1]; MARK3, 5 μM ATP, read-out: residual kinase activity) of the same compound?
Answer: 1%

Question: What about the remaining activity at 10 µM ([2]; read-out: residual kinase activity PAK5) of the same compound?
Answer: 56%

Question: And the “residual kinase activity PAK5” value ([2]; 1 μm compound)?
Answer: 74%

Question: What about the remaining activity at 1 µM ([2]; PAK5, 1 μM compound, read-out: residual kinase activity) of the same compound?
Answer: 74%

Question: And the remaining activity at 10 µM ([2]; PAK5, read-out: residual kinase activity)?
Answer: 56%

Question: What about the remaining activity at 10 µM ([3]; read-out: residual kinase activity PIM3) of the same compound?
Answer: 37%

Question: And the “residual kinase activity PIM3” value ([3]; 1 μm compound)?
Answer: 73%

Question: What about the remaining activity at 1 µM ([3]; PIM3, 1 μM compound, read-out: residual kinase activity) of the same compound?
Answer: 73%

Question: What about the remaining activity at 10 µM ([3]; PIM3, read-out: residual kinase activity) of the same compound?
Answer: 37%

Question: What about the “residual kinase activity IGF-1R” value ([4]; 10 μM compound) of the same compound?
Answer: 87%

Question: And the “residual kinase activity IGF-1R” value ([4]; 1 μm compound)?
Answer: 86%

Question: What about the residual kinase activity ([4]; 1 μM compound) of the same compound?
Answer: 86%

Question: What about the residual kinase activity ([4]; 10 μM compound) of the same compound?
Answer: 87%

Question: And the “residual kinase activity AMPK” value ([5]; 10 μM compound)?
Answer: 8%

Question: What about the “residual kinase activity AMPK” value ([5]; 1 μm compound) of the same compound?
Answer: 45%

Question: What about the residual kinase activity ([5]; 1 μM compound) of the same compound?
Answer: 45%

Question: What about the residual kinase activity ([5]; 10 μM compound) of the same compound?
Answer: 8%

Question: And the remaining activity at 10 µM ([6]; read-out: residual kinase activity S6K1)?
Answer: 30%

Question: And the “residual kinase activity S6K1” value ([6]; 1 μm compound)?
Answer: 38%

Question: What about the remaining activity at 1 µM ([6]; S6K1, 1 μM compound, read-out: residual kinase activity) of the same compound?
Answer: 38%

Question: What about the remaining activity at 10 µM ([6]; S6K1, read-out: residual kinase activity) of the same compound?
Answer: 30%

Question: What about the remaining activity at 10 µM ([7]; read-out: residual kinase activity MNK2) of the same compound?
Answer: 10%

Question: What about the “residual kinase activity MNK2” value ([7]; 1 μm compound) of the same compound?
Answer: 39%

Question: What about the remaining activity at 1 µM ([7]; MNK2, 1 μM compound, 50 μM ATP, read-out: residual kinase activity) of the same compound?
Answer: 39%

Question: And the remaining activity at 10 µM ([7]; MNK2, 50 μM ATP, read-out: residual kinase activity)?
Answer: 10%

Question: What about the remaining activity at 10 µM ([8]; read-out: residual kinase activity CSK) of the same compound?
Answer: 69%

Question: And the “residual kinase activity CSK” value ([8]; 1 μm compound)?
Answer: 77%

Question: And the remaining activity at 1 µM ([8]; CSK, 1 μM compound, read-out: residual kinase activity)?
Answer: 77%

Question: What about the remaining activity at 10 µM ([8]; CSK, read-out: residual kinase activity) of the same compound?
Answer: 69%

Question: What about the remaining activity at 10 µM ([9]; read-out: residual kinase activity PAK4) of the same compound?
Answer: 31%

Question: And the “residual kinase activity PAK4” value ([9]; 1 μm compound)?
Answer: 72%

Question: And the remaining activity at 1 µM ([9]; PAK4, 1 μM compound, read-out: residual kinase activity)?
Answer: 72%

Question: What about the remaining activity at 10 µM ([9]; PAK4, read-out: residual kinase activity) of the same compound?
Answer: 31%

Question: And the remaining activity at 10 µM ([10]; read-out: residual kinase activity MSK1)?
Answer: 34%

Question: And the “residual kinase activity MSK1” value ([10]; 1 μm compound)?
Answer: 74%

Question: And the remaining activity at 1 µM ([10]; MSK1, 1 μM compound, read-out: residual kinase activity)?
Answer: 74%

Question: What about the remaining activity at 10 µM ([10]; MSK1, read-out: residual kinase activity) of the same compound?
Answer: 34%

Question: And the remaining activity at 10 µM ([11]; read-out: residual kinase activity BTK)?
Answer: 25%

Question: And the “residual kinase activity BTK” value ([11]; 1 μm compound)?
Answer: 74%

Question: And the remaining activity at 1 µM ([11]; BTK, 1 μM compound, read-out: residual kinase activity)?
Answer: 74%

Question: And the remaining activity at 10 µM ([11]; BTK, read-out: residual kinase activity)?
Answer: 25%

Question: What about the remaining activity at 10 µM ([12]; read-out: residual kinase activity EF2K) of the same compound?
Answer: 125%

Question: And the “residual kinase activity EF2K” value ([12]; 1 μm compound)?
Answer: 105%

Question: What about the remaining activity at 1 µM ([12]; EF2K, 1 μM compound, read-out: residual kinase activity) of the same compound?
Answer: 105%

Question: And the remaining activity at 10 µM ([12]; EF2K, read-out: residual kinase activity)?
Answer: 125%
